Data taken from ChEMBL document CHEMBL1149741, “Further bioactive acetylenic compounds from the Caribbean sponge Cribrochalina vasculum” (J Nat Prod, 1992).
Values after ≈ are worked out from the molar mass of the structure shown. Active and inactive are the calls of the source. The rule behind the calls is not given here.

Tests used:
Lymphocyte = test: Immunosuppressive activity against lymphocyte by mixed lymphocyte reaction assay; type: functional, cell-based
P388 = test: Antitumor activity against mouse P388 cells; type: functional, cell-based
Artemia salina = test: (§1) Toxicity against Artemia salina; type: organism-based; details: in vivo
[1] = as §1; type: organism-based; details: in vivo

C#CC(O)/C=C/CCCCCCCCC/C=C/CCCCC(C)C (centres undefined)
Activity (Lymphocyte): Active | Activity (P388): Active | Activity (Artemia salina): Toxic

C#C[C@H](O)/C=C/CCCCCCCCCCCCCC(C)C
Activity (Lymphocyte): Active | Activity (P388): Active | LC50 [1]: 0.8 µg/mL (≈ 2.61 µM)

C#C[C@H](O)/C=C/CCCCCCCCC/C=C/CCCCCC
Activity (Lymphocyte): Active | Activity (P388): Active | LC50 [1]: 0.4 µg/mL (≈ 1.26 µM)

C#CC(O)/C=C/CCCCCCCCCCCCCCC (centres undefined)
Activity (Lymphocyte): Active | Activity (P388): Active | Activity (Artemia salina): Toxic

C#C[C@H](O)CCCCCCCCCCCCC(C)CCCC (some centres undefined)
LC50 [1]: 1.2 µg/mL (≈ 3.89 µM)

C#C/C=C/CCCCCCCCCC/C=C\CCCCCC
LC50 [1]: 1.1 µg/mL (≈ 3.64 µM)

C#C[C@H](O)/C=C/CCCCCCCCC(C)CCCCCCCC (some centres undefined)
LC50 [1]: 0.03 µg/mL (≈ 0.0897 µM)

C#C[C@H](O)/C=C/CCCCCCCCCCC(C)CCCC (some centres undefined)
Activity (Lymphocyte): Active | Activity (P388): Active | LC50 [1]: 0.8 µg/mL (≈ 2.61 µM)

C#C[C@H](O)CCCCCCCCCCCCCCCC(C)C
LC50 [1]: 1 µg/mL (≈ 3.24 µM)
